Experiments:
[1] = test system: sn-Glycerol-3-Phosphate Acyl Transferase; experiment: In vivo enzyme activity, liver of treated mice: sn-glycerol-3-phosphate acyl transferase; parameters: species or system CF1 male mice; settings: 16 days, ± SD
Method: (§1) In vitro enzymatic studies were undertaken using 10% homogenates of CF1 male mouse liver with […] of compound 3,4,5,6-dibenzohomopiperidine. In addition, in vivo enzymatic studies were performed, again using 10% liver homogenates (prepared in 0.25 M sucrose plus 0.001 M (ethylenedinitrilo)-tetraacetic acid, ph 7.25 from CF1 male mice obtained after administering 3,4,5,6-dibenzohomopiperidine for 16 days at a concentration ranging from 10 to 60 mg/kg/day, intraperitoneally.
(§2) The following enzyme activities were determined by following standard literature procedures: acetyl coenzyme synthetase; adenosine triphosphate dependent citrate lyase; mitochondrial citrate exchange; cholesterol/7 hydroxylase; 3-hydroxy-3-methyl-glutaryl coenzyme A reductase; acetyl coenzyme A carboxylase activity; fatty acid synthetase activity; sn-glycerol-3-phosphate acyl transferase activity; phosphatidate phosphohydrolase activity; cholesterol acyl transferase; and heparin activated hepatic lypoprotein lipase. Protein was determined for all enzyme assays by the Lowry et al. technique (J. Biol. Chem, 193, 265 (1951)).

[2] = test system: ATP Dependent Citrate Lyase; experiment: In vivo enzyme activity, liver of treated mice: ATP dependent citrate lyase; parameters: species or system CF1 male mice; settings: 16 days, ± SD
Method: as §1, §2

[3] = test system: Mitochondrial Citrate Exchange; experiment: In vitro enzyme activity, liver homogenate: mitochondrial citrate exchange; type: biochemical, CF1 male mouse; settings: ± SD, N = 6
Method: as §1, §2

Feces = experiment: Lipid Extraction Studies in Rats, Example 11: feces; type: in vivo, Sprague Dawley male rats; settings: oral 20 mg/kg/day, fourteen days, ± SD
[4] = molecular target: T1, Hepatic Lipoprotein Lipase (Mus musculus, UniProt P27656); experiment: In vitro enzyme activity, liver homogenate: hepatic lipoprotein lipase; type: biochemical, CF1 male mouse; settings: ± SD, N = 6, read-out: Percent Control, in vitro enzyme activity
T1 construct: 10% homogenates of CF1 male mouse liver; from tissue; host or cells: CF1 male mouse liver, 10% homogenate
T1 sequence (P27656 22-510): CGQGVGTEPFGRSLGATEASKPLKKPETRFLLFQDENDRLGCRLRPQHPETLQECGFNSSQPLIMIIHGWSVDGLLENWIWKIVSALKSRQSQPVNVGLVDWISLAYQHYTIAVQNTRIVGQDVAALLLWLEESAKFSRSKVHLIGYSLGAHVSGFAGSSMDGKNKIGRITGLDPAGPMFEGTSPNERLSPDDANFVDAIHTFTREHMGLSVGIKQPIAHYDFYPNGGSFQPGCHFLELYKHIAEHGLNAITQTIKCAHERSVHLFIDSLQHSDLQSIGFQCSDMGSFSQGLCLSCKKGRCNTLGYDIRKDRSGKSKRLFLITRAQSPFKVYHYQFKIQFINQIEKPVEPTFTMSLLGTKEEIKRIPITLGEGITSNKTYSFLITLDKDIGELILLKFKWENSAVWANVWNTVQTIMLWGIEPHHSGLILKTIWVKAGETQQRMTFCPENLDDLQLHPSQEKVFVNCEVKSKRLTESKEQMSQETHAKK
Method: as §1, §2

[5] = test system: Phosphatidate Phosphohyrolase; experiment: In vitro enzyme activity, liver homogenate: phosphatidate phosphohydrolase; type: biochemical, CF1 male mouse; settings: ± SD, N = 6
Method: as §1, §2

Fatty Acid Synthetase = experiment: In vivo enzyme activity, liver of treated mice: fatty acid synthetase; parameters: species or system CF1 male mice; settings: 16 days, ± SD
Method: as §1, §2

c1ccc2c(c1)CNCc1ccccc1-2 [Compound 3, 3,4,5,6-dibenzohomopiperidine]
Percent Control, in vivo enzyme activity ([1]; 10 mg/kg/day ip): 45 ± 7%
Percent Control, in vivo enzyme activity ([1]; 20 mg/kg/day ip): 68 ± 8%
Percent Control, in vivo enzyme activity ([1]; 40 mg/kg/day ip): 62 ± 6%
Percent Control, in vivo enzyme activity ([1]; 60 mg/kg/day ip): 81 ± 6%
Percent Control, in vivo enzyme activity ([2]; 10 mg/kg/day ip): 73 ± 6%
Percent Control, in vivo enzyme activity ([2]; 20 mg/kg/day ip): 63 ± 4%
Percent Control, in vivo enzyme activity ([2]; 40 mg/kg/day ip): 62 ± 3%
Percent Control, in vivo enzyme activity ([2]; 60 mg/kg/day ip): 65 ± 5%
Percent Control, in vitro enzyme activity ([3]; 50 μM): 99 ± 6%
Percent Control, in vitro enzyme activity ([3]; 100 μM): 97 ± 5%
Percent Control, in vitro enzyme activity ([3]; 200 μM): 99 ± 7%
Cholesterol, concentration as a function of control (Feces): 103 ± 7%
Mg Lipid Wt, concentration as a function of control (Feces): 102 ± 8%
Neutral Lipids, concentration as a function of control (Feces): 108 ± 9%
Phospholipids, concentration as a function of control (Feces): 108 ± 10%
Protein, concentration as a function of control (Feces): 133 ± 8%
Triglycerides, concentration as a function of control (Feces): 99 ± 7%
remaining activity at 50 µM ([4]; 50 μM): 90 ± 7%
remaining activity at 100 µM ([4]; 100 μM): 89 ± 6%
remaining activity at 200 µM ([4]; 200 μM): 72 ± 5%
Percent Control, in vitro enzyme activity ([5]; 50 μM): 45 ± 4%
Percent Control, in vitro enzyme activity ([5]; 100 μM): 44 ± 8%
Percent Control, in vitro enzyme activity ([5]; 200 μM): 50 ± 6%
Percent Control, in vivo enzyme activity (Fatty Acid Synthetase; 10 mg/kg/day ip): 100 ± 8%
Percent Control, in vivo enzyme activity (Fatty Acid Synthetase; 20 mg/kg/day ip): 114 ± 6%
Percent Control, in vivo enzyme activity (Fatty Acid Synthetase; 40 mg/kg/day ip): 106 ± 7%
Percent Control, in vivo enzyme activity (Fatty Acid Synthetase; 60 mg/kg/day ip): 110 ± 8%
